Reference: ChEMBL document CHEMBL1201862, “PubChem BioAssay data set” (2004)
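Briefly, cells in 96-well plates were exposed to five compound concentrations for 48 h, and endpoints were estimated by linear interpolation. Here, GI50 denotes the concentration required for 50% inhibition of growth.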 The source made the active and inactive calls. Cut-off read from the data, not from the text of the source: active = GI50 up to about 1.1 µM and inactive = higher.

Experiments:
Experiment in all cases: NCI-60 cell line screen, 48 h
U-251 = tested on: U-251
COLO 205 = tested on: COLO 205
SK-MEL-28 = tested on: SK-MEL-28
NCI-H460 = tested on: NCI-H460
OVCAR-4 = tested on: OVCAR-4
HL-60 = tested on: HL-60
M19-MEL = tested on: M19-MEL
SNB-78 = tested on: SNB-78
HCC 2998 = tested on: HCC 2998
HCT-116 = tested on: HCT-116
M14 = tested on: M14
XF498 = tested on: XF498
A549 = tested on: A549
RXF 393 = tested on: RXF 393
TK-10 = tested on: TK-10
ACHN = tested on: ACHN
HOP-62 = tested on: HOP-62
DMS-114 = tested on: DMS-114
HCT-15 = tested on: HCT-15
MOLT-4 = tested on: MOLT-4
HOP-92 = tested on: HOP-92
Malme-3M = tested on: Malme-3M
HOP-18 = tested on: HOP-18
EKVX = tested on: EKVX
OVCAR-3 = tested on: OVCAR-3
NCI-H226 = tested on: NCI-H226
OVCAR-5 = tested on: OVCAR-5
SK-MEL-2 = tested on: SK-MEL-2
NCI-H23 = tested on: NCI-H23
SF-268 = tested on: SF-268
SK-OV-3 = tested on: SK-OV-3
UO-31 = tested on: UO-31
UACC-257 = tested on: UACC-257
HT-29 = tested on: HT-29
CCRF-CEM = tested on: CCRF-CEM
IGROV-1 = tested on: IGROV-1
SK-MEL-5 = tested on: SK-MEL-5
DLD-1 = tested on: DLD-1
UACC-62 = tested on: UACC-62
NCI-H522 = tested on: NCI-H522
SNB-19 = tested on: SNB-19
SNB-75 = tested on: SNB-75
RPMI-8226 = tested on: RPMI-8226
A498 = tested on: A498
SR = tested on: SR
SF-295 = tested on: SF-295
LOX IMVI = tested on: LOX IMVI
786-0 = tested on: 786-0
KM12 = tested on: KM12
LXFL 529 = tested on: LXFL 529
OVCAR-8 = tested on: OVCAR-8
SF-539 = tested on: SF-539
KM-20L2 = tested on: KM-20L2
CAKI-1 = tested on: CAKI-1
SN12C = tested on: SN12C
RXF 631 = tested on: RXF 631
K562 = tested on: K562
SW-620 = tested on: SW-620
DMS-273 = tested on: DMS-273

Q: For `COc1ccc(/C=C(\NC(=O)c2ccccc2)c2nc3ccccc3[nH]2)cc1OC`, which GI50 (U-251) is on record?
A: > 100 µM (inactive)

Q: What about the GI50 (COLO 205) of the same molecule?
A: > 100 µM (inactive)

Q: What about the GI50 (SK-MEL-28) of the same molecule?
A: > 100 µM (inactive)

Q: And the GI50 (NCI-H460)?
A: > 100 µM (inactive)

Q: What about the GI50 (OVCAR-4) of the same molecule?
A: > 100 µM (inactive)

Q: What about the GI50 (HL-60) of the same molecule?
A: > 100 µM (inactive)

Q: What about the GI50 (M19-MEL) of the same molecule?
A: > 100 µM (inactive)

Q: And the GI50 (SNB-78)?
A: > 100 µM (inactive)

Q: What about the GI50 (HCC 2998) of the same molecule?
A: > 100 µM (inactive)

Q: What about the GI50 (HCT-116) of the same molecule?
A: > 100 µM (inactive)

Q: And the GI50 (M14)?
A: > 100 µM (inactive)

Q: And the GI50 (XF498)?
A: > 100 µM (inactive)

Q: And the GI50 (A549)?
A: > 100 µM (inactive)

Q: And the GI50 (RXF 393)?
A: > 100 µM (inactive)

Q: And the GI50 (TK-10)?
A: > 100 µM (inactive)

Q: What about the GI50 (ACHN) of the same molecule?
A: > 100 µM (inactive)

Q: And the GI50 (HOP-62)?
A: > 100 µM (inactive)

Q: And the GI50 (DMS-114)?
A: > 100 µM (inactive)

Q: What about the GI50 (HCT-15) of the same molecule?
A: > 100 µM

Q: And the GI50 (MOLT-4)?
A: 79.1 µM (inactive)

Q: And the GI50 (HOP-92)?
A: > 100 µM (inactive)

Q: And the GI50 (Malme-3M)?
A: > 100 µM (inactive)

Q: And the GI50 (HOP-18)?
A: > 100 µM (inactive)

Q: What about the GI50 (EKVX) of the same molecule?
A: > 100 µM (inactive)

Q: And the GI50 (OVCAR-3)?
A: > 100 µM (inactive)

Q: And the GI50 (NCI-H226)?
A: > 100 µM (inactive)

Q: What about the GI50 (OVCAR-5) of the same molecule?
A: > 100 µM (inactive)

Q: And the GI50 (SK-MEL-2)?
A: > 100 µM (inactive)

Q: What about the GI50 (NCI-H23) of the same molecule?
A: > 100 µM (inactive)

Q: What about the GI50 (SF-268) of the same molecule?
A: > 100 µM (inactive)

Q: What about the GI50 (SK-OV-3) of the same molecule?
A: > 100 µM (inactive)

Q: What about the GI50 (UO-31) of the same molecule?
A: 99.3 µM (inactive)

Q: What about the GI50 (UACC-257) of the same molecule?
A: > 100 µM (inactive)

Q: What about the GI50 (HT-29) of the same molecule?
A: > 100 µM (inactive)

Q: And the GI50 (CCRF-CEM)?
A: 85.9 µM (inactive)

Q: And the GI50 (IGROV-1)?
A: > 100 µM (inactive)

Q: What about the GI50 (SK-MEL-5) of the same molecule?
A: > 100 µM (inactive)

Q: What about the GI50 (DLD-1) of the same molecule?
A: > 100 µM (inactive)

Q: And the GI50 (UACC-62)?
A: > 100 µM (inactive)

Q: What about the GI50 (NCI-H522) of the same molecule?
A: > 100 µM (inactive)

Q: What about the GI50 (SNB-19) of the same molecule?
A: > 100 µM (inactive)

Q: And the GI50 (SNB-75)?
A: > 100 µM (inactive)

Q: And the GI50 (RPMI-8226)?
A: 80.5 µM (inactive)

Q: What about the GI50 (A498) of the same molecule?
A: > 100 µM (inactive)

Q: What about the GI50 (SR) of the same molecule?
A: > 100 µM (inactive)

Q: What about the GI50 (SF-295) of the same molecule?
A: > 100 µM (inactive)

Q: What about the GI50 (LOX IMVI) of the same molecule?
A: > 100 µM (inactive)

Q: What about the GI50 (786-0) of the same molecule?
A: > 100 µM (inactive)

Q: What about the GI50 (KM12) of the same molecule?
A: > 100 µM (inactive)

Q: What about the GI50 (LXFL 529) of the same molecule?
A: 76 µM (inactive)

Q: And the GI50 (OVCAR-8)?
A: > 100 µM (inactive)

Q: And the GI50 (SF-539)?
A: > 100 µM (inactive)

Q: What about the GI50 (KM-20L2) of the same molecule?
A: > 100 µM (inactive)

Q: What about the GI50 (CAKI-1) of the same molecule?
A: > 100 µM (inactive)

Q: What about the GI50 (SN12C) of the same molecule?
A: > 100 µM (inactive)

Q: And the GI50 (RXF 631)?
A: > 100 µM (inactive)

Q: And the GI50 (K562)?
A: > 100 µM (inactive)

Q: And the GI50 (SW-620)?
A: > 100 µM (inactive)

Q: `Cn1cnc([N+](=O)[O-])c1Sc1n[nH]c(-c2ccc(Cl)cc2)n1` was tested. Which GI50 (U-251) did it give?
A: 19.5 µM (inactive)

Q: What about the GI50 (COLO 205) of the same molecule?
A: 17.1 µM (inactive)

Q: And the GI50 (SK-MEL-28)?
A: 15.3 µM (inactive)

Q: What about the GI50 (NCI-H460) of the same molecule?
A: 20.8 µM (inactive)

Q: And the GI50 (OVCAR-4)?
A: 18.3 µM (inactive)

Q: And the GI50 (M19-MEL)?
A: 19 µM (inactive)

Q: What about the GI50 (SNB-78) of the same molecule?
A: 19.8 µM (inactive)

Q: And the GI50 (HCC 2998)?
A: 21.3 µM (inactive)

Q: What about the GI50 (HCT-116) of the same molecule?
A: 19.6 µM (inactive)

Q: And the GI50 (M14)?
A: 15 µM (inactive)

Q: And the GI50 (XF498)?
A: 10.1 µM (inactive)

Q: What about the GI50 (A549) of the same molecule?
A: 25.3 µM (inactive)

Q: And the GI50 (RXF 393)?
A: 13.3 µM (inactive)

Q: What about the GI50 (TK-10) of the same molecule?
A: 17.7 µM (inactive)

Q: And the GI50 (ACHN)?
A: 18.7 µM (inactive)

Q: And the GI50 (DMS-273)?
A: 16.9 µM (inactive)

Q: And the GI50 (HOP-62)?
A: 21.5 µM (inactive)

Q: What about the GI50 (DMS-114) of the same molecule?
A: 18.2 µM (inactive)

Q: And the GI50 (MOLT-4)?
A: 12.2 µM (inactive)

Q: And the GI50 (HOP-92)?
A: 14.5 µM (inactive)

Q: And the GI50 (Malme-3M)?
A: 11.1 µM (inactive)

Q: And the GI50 (HOP-18)?
A: 1.47 µM (inactive)

Q: What about the GI50 (EKVX) of the same molecule?
A: 23.9 µM (inactive)

Q: And the GI50 (OVCAR-3)?
A: 18.1 µM (inactive)

Q: And the GI50 (NCI-H226)?
A: 14 µM (inactive)

Q: What about the GI50 (OVCAR-5) of the same molecule?
A: 23.4 µM (inactive)

Q: What about the GI50 (SK-MEL-2) of the same molecule?
A: 13.6 µM (inactive)

Q: And the GI50 (NCI-H23)?
A: 18.6 µM (inactive)

Q: What about the GI50 (SF-268) of the same molecule?
A: 22 µM (inactive)

Q: And the GI50 (SK-OV-3)?
A: 30.9 µM (inactive)

Q: And the GI50 (UO-31)?
A: 19.1 µM (inactive)

Q: And the GI50 (UACC-257)?
A: 17.1 µM (inactive)

Q: And the GI50 (HT-29)?
A: 19.1 µM (inactive)

Q: What about the GI50 (CCRF-CEM) of the same molecule?
A: 11.8 µM (inactive)

Q: What about the GI50 (IGROV-1) of the same molecule?
A: 20 µM (inactive)

Q: What about the GI50 (SK-MEL-5) of the same molecule?
A: 15.7 µM (inactive)

Q: And the GI50 (DLD-1)?
A: 18.4 µM (inactive)

Q: What about the GI50 (UACC-62) of the same molecule?
A: 14.4 µM (inactive)

Q: What about the GI50 (NCI-H522) of the same molecule?
A: 11.7 µM (inactive)

Q: What about the GI50 (SNB-19) of the same molecule?
A: 20.7 µM (inactive)

Q: And the GI50 (SNB-75)?
A: 18.6 µM (inactive)

Q: What about the GI50 (RPMI-8226) of the same molecule?
A: 22.1 µM (inactive)

Q: And the GI50 (A498)?
A: 22.4 µM (inactive)

Q: What about the GI50 (SR) of the same molecule?
A: 13.1 µM (inactive)

Q: What about the GI50 (SF-295) of the same molecule?
A: 23.4 µM (inactive)

Q: And the GI50 (LOX IMVI)?
A: 15 µM (inactive)

Q: And the GI50 (786-0)?
A: 20.3 µM (inactive)

Q: What about the GI50 (KM12) of the same molecule?
A: 18.5 µM (inactive)

Q: And the GI50 (LXFL 529)?
A: 11.7 µM (inactive)

Q: And the GI50 (OVCAR-8)?
A: 16.3 µM (inactive)

Q: And the GI50 (SF-539)?
A: 15.3 µM (inactive)

Q: What about the GI50 (CAKI-1) of the same molecule?
A: 25.1 µM (inactive)

Q: What about the GI50 (SN12C) of the same molecule?
A: 15.5 µM (inactive)

Q: What about the GI50 (RXF 631) of the same molecule?
A: 20.7 µM (inactive)

Q: What about the GI50 (K562) of the same molecule?
A: 13.7 µM (inactive)

Q: And the GI50 (SW-620)?
A: 21.7 µM (inactive)
